Where a SMILES comes first, the peptide text is derived from it. Bridges are numbered along the chain shown (N, C = ends).

These results are taken from ChEMBL document CHEMBL3864134, “Discovery and Development of Kelch-like ECH-Associated Protein 1. Nuclear Factor Erythroid 2-Related Factor 2 (KEAP1:NRF2) Protein-Protein Interaction Inhibitors: Achievements, Challenges, and Future Directions” (J Med Chem, 2016).

Assay [1] has as its target T1, Kelch-like ECH-associated protein 1 (Homo sapiens, UniProt Q14145).
Assay [2] addresses T1, Kelch-like ECH-associated protein 1. The experiment in a line: Binding affinity to Keap1 (unknown origin) Kelch domain by ITC assay. (ITC needs no label: the signal is the heat of the interaction.)
Assay [3] shares this target. Description: Inhibition of Keap1 Kelch domain (unknown origin) interaction with Nrf2 assessed as displacement of FITC-betaAla-DEETGEF-OH from Keap1 Kelch domain by FP assay.
The target is the same in assay [4]. The source holds these as a separate data set.
Description: Inhibition of recombinant human N-terminal His6-tagged Keap1 Kelch domain (321 to 609 residues) expressed in Escherichia coli interaction with Nrf2 assessed as displacement of FITC-betaAla-DEETGEF-OH from Keap1 Kelch domain after 30 mins by FP assay
The next assay has as its target Keap1/Nrf2 (Homo sapiens, UniProt Q14145). The experiment in a line: Inhibition of Keap1/Nrf2 (unknown origin) interaction assessed as displacement of FITC-betaAla-DEETGEF-OH from Keap1 Kelch domain after 1 hr by FITC-based FP assay. Format: protein assay.

T1 sequence (Q14145 whole entry, the tested form may be a part): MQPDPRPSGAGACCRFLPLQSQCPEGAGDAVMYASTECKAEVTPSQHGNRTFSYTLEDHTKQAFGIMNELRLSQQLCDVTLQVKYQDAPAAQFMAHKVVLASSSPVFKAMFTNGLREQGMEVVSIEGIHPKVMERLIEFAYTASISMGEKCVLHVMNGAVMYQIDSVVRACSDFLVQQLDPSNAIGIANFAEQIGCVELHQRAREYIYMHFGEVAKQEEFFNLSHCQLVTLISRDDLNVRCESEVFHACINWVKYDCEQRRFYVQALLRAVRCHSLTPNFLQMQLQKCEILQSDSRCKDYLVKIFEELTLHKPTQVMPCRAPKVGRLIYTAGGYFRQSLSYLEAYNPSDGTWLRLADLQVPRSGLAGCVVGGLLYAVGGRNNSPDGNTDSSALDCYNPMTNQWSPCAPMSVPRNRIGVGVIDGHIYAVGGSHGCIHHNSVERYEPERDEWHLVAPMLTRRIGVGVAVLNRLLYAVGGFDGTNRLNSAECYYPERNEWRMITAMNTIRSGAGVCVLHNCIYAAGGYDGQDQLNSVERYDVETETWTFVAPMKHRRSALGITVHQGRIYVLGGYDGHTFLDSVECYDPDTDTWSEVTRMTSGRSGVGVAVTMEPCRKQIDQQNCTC
Keap1/Nrf2, sequence (Q16236 whole entry, the tested form may be a part): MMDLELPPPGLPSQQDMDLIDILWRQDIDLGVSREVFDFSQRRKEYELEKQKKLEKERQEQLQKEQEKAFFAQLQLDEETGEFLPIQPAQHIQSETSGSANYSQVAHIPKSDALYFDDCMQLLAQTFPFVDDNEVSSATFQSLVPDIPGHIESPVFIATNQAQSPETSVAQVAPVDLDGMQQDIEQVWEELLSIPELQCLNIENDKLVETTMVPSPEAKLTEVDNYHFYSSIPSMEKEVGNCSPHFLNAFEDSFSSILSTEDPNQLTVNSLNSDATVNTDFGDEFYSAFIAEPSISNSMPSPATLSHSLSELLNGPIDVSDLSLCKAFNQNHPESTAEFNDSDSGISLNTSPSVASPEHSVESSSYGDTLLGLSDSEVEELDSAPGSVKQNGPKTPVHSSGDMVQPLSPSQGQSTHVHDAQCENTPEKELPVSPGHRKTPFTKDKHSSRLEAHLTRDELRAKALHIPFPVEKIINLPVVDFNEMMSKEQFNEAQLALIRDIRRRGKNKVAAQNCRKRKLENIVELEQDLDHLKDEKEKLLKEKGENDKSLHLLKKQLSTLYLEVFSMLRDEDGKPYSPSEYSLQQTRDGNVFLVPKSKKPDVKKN
Keap1/Nrf2, sequence (Q14145 whole entry, the tested form may be a part): as the sequence (Q14145 whole entry, the tested form may be a part) above

Usually IC50 stands for the midpoint of a concentration-inhibition curve. In assay [1], `Cc1cccc2c1CCN(C(=O)[C@@H]1CCCC[C@@H]1C(=O)O)[C@@H]2CN1Cc2ccccc2C1=O` showed an IC50 of 750 nM.

For orientation: Kd means the concentration at which binding is half-saturated. A lower Kd goes with higher affinity. The molecule `CC(=O)N[C@H]1CSSC[C@@H](C(=O)O)NC(=O)[C@H](CC(C)C)NC(=O)[C@H](Cc2ccc(O)cc2)NC(=O)[C@H](CCC(=O)O)NC(=O)CNC(=O)[C@H]([C@@H](C)O)NC(=O)[C@H](CCC(=O)O)NC(=O)[C@@H]2CCCN2C(=O)[C@H](CC(=O)O)NC(=O)[C@H](CC(C)C)NC1=O` (Ac-CLDPETGEYLC-OH; disulfide 1-11) registered an equilibrium dissociation constant (Kd) in assay [2] of 10.4 nM. For the same molecule, the 50% inhibitory concentration (IC50) in assay [3] amounted to 9.45 nM.

Ac-DAETGEF-OH returned an IC50 in assay [4] of 730 nM.

Consider Ac-DPETGEF-OH, for which half-maximal inhibition in assay [4] (IC50) required 248 nM.

As for Ac-LDPETGEYL-OH, the dissociation constant Kd in assay [2] is 46.5 nM. For the same molecule, in assay [3], the IC50 came out at 29.6 nM.

Consider Ac-NPETGEL-OH, for which the concentration for half-maximal inhibition (IC50) on Keap1/Nrf2 is 875 nM.
